Assays:
MDA-MB-231 = assay: NCI single dose (10 µM) SRB screen; format: cell-based, human; conditions: breast cancer, 48 h
UACC-257 = assay: NCI single dose (10 µM) SRB screen; format: cell-based, human; conditions: melanoma, 48 h
OVCAR-3 = assay: NCI single dose (10 µM) SRB screen; format: cell-based, human; conditions: ovarian cancer, 48 h
MALME-3M = assay: NCI single dose (10 µM) SRB screen; format: cell-based, human; conditions: melanoma, 48 h
TK-10 = assay: NCI single dose (10 µM) SRB screen; format: cell-based, human; conditions: renal cancer, 48 h
NCI-H322M = assay: NCI single dose (10 µM) SRB screen; format: cell-based; conditions: non-small cell lung cancer, 48 h
A498 = assay: NCI single dose (10 µM) SRB screen; format: cell-based, human; conditions: renal cancer, 48 h
MDA-MB-468 = assay: NCI single dose (10 µM) SRB screen; format: cell-based, human; conditions: breast cancer, 48 h
SK-MEL-2 = assay: NCI single dose (10 µM) SRB screen; format: cell-based, human; conditions: melanoma, 48 h
K-562 = assay: NCI single dose (10 µM) SRB screen; format: cell-based, human; conditions: leukaemia, 48 h
OVCAR-4 = assay: NCI single dose (10 µM) SRB screen; format: cell-based, human; conditions: ovarian cancer, 48 h
HS578T = assay: NCI single dose (10 µM) SRB screen; format: cell-based, human; conditions: breast cancer, 48 h
MOLT-4 = assay: NCI single dose (10 µM) SRB screen; format: cell-based, human; conditions: leukaemia, 48 h
RXF 393 = assay: NCI single dose (10 µM) SRB screen; format: cell-based, human; conditions: renal cancer, 48 h
OVCAR-5 = assay: NCI single dose (10 µM) SRB screen; format: cell-based, human; conditions: ovarian cancer, 48 h
Aspergillus flavus = assay: Agar well diffusion method
SN12C = assay: NCI single dose (10 µM) SRB screen; format: cell-based, human; conditions: renal cancer, 48 h
OVCAR-8 = assay: NCI single dose (10 µM) SRB screen; format: cell-based, human; conditions: ovarian cancer, 48 h
NCI 60 cancer cell lines = assay: NCI single dose (10 µM) SRB screen, mean over panel; format: cell-based, human; conditions: mean over 60 cell lines, 48 h
BT-549 = assay: NCI single dose (10 µM) SRB screen; format: cell-based, human; conditions: breast cancer, 48 h
SF-539 = assay: NCI single dose (10 µM) SRB screen; format: cell-based, human; conditions: CNS cancer, 48 h
NCI/ADR-RES = assay: NCI single dose (10 µM) SRB screen; format: cell-based, human; conditions: ovarian cancer, 48 h
SF-268 = assay: NCI single dose (10 µM) SRB screen; format: cell-based, human; conditions: CNS cancer, 48 h
UO-31 = assay: NCI single dose (10 µM) SRB screen; format: cell-based, human; conditions: renal cancer, 48 h
HCC-2998 = assay: NCI single dose (10 µM) SRB screen; format: cell-based, human; conditions: colon cancer, 48 h
PC-3 = assay: NCI single dose (10 µM) SRB screen; format: cell-based, human; conditions: prostate cancer, 48 h
NCI-H460 = assay: NCI single dose (10 µM) SRB screen; format: cell-based, human; conditions: non-small cell lung cancer, 48 h
Staphylococcus aureus = assay: Agar well diffusion method
SNB-75 = assay: NCI single dose (10 µM) SRB screen; format: cell-based, human; conditions: CNS cancer, 48 h
SF-295 = assay: NCI single dose (10 µM) SRB screen; format: cell-based, human; conditions: CNS cancer, 48 h
COLO 205 = assay: NCI single dose (10 µM) SRB screen; format: cell-based, human; conditions: colon cancer, 48 h
M14 = assay: NCI single dose (10 µM) SRB screen; format: cell-based, human; conditions: melanoma, 48 h
EKVX = assay: NCI single dose (10 µM) SRB screen; format: cell-based, human; conditions: non-small cell lung cancer, 48 h
Candida albicans = assay: Agar well diffusion method
ACHN = assay: NCI single dose (10 µM) SRB screen; format: cell-based, human; conditions: renal cancer, 48 h
HCT-15 = assay: NCI single dose (10 µM) SRB screen; format: cell-based, human; conditions: colon cancer, 48 h
IGROV1 = assay: NCI single dose (10 µM) SRB screen; format: cell-based, human; conditions: ovarian cancer, 48 h
A549/ATCC = assay: NCI single dose (10 µM) SRB screen; format: cell-based, human; conditions: non-small cell lung cancer, 48 h
LOX IMVI = assay: NCI single dose (10 µM) SRB screen; format: cell-based, human; conditions: melanoma, 48 h
U251 = assay: NCI single dose (10 µM) SRB screen; format: cell-based, human; conditions: CNS cancer, 48 h
SNB-19 = assay: NCI single dose (10 µM) SRB screen; format: cell-based, human; conditions: CNS cancer, 48 h
HCT-116 = assay: NCI single dose (10 µM) SRB screen; format: cell-based, human; conditions: colon cancer, 48 h
HT29 = assay: NCI single dose (10 µM) SRB screen; format: cell-based, human; conditions: colon cancer, 48 h
NCI-H23 = assay: NCI single dose (10 µM) SRB screen; format: cell-based, human; conditions: non-small cell lung cancer, 48 h
MDA-MB-435 = assay: NCI single dose (10 µM) SRB screen; format: cell-based, human; conditions: melanoma, 48 h
CCRF-CEM = assay: NCI single dose (10 µM) SRB screen; format: cell-based, human; conditions: leukaemia, 48 h
T-47D = assay: NCI single dose (10 µM) SRB screen; format: cell-based, human; conditions: breast cancer, 48 h
786-0 = assay: NCI single dose (10 µM) SRB screen; format: cell-based, human; conditions: renal cancer, 48 h
RPMI-8226 = assay: NCI single dose (10 µM) SRB screen; format: cell-based, human; conditions: leukaemia, 48 h
SK-OV-3 = assay: NCI single dose (10 µM) SRB screen; format: cell-based, human; conditions: ovarian cancer, 48 h
CAKI-1 = assay: NCI single dose (10 µM) SRB screen; format: cell-based, human; conditions: renal cancer, 48 h
HL-60(TB) = assay: NCI single dose (10 µM) SRB screen; format: cell-based, human; conditions: leukaemia, 48 h

Structure (SMILES): CC1=C(C(=O)OC(C)C)C(c2cccc(C#N)c2)C(C(=O)OC(C)C)=C(C)N1 [Compound 1c, Diisopropyl 4-(3-cyanophenyl)-2,6-dimethyl-1,4-dihydropyridine-3,5-dicarboxylate]
- GI% MDA-MB-231 (MDA-MB-231): – (Only GI% ≥ 10 are shown)
- GI% UACC-257 (UACC-257): – (Only GI% ≥ 10 are shown)
- GI% OVCAR-3 (OVCAR-3): – (Only GI% ≥ 10 are shown)
- GI% MALME-3M (MALME-3M): – (Only GI% ≥ 10 are shown)
- GI% TK-10 (TK-10): – (Only GI% ≥ 10 are shown)
- GI% NCI-H322M (NCI-H322M): – (Only GI% ≥ 10 are shown)
- GI% A498 (A498): – (Only GI% ≥ 10 are shown)
- GI% MDA-MB-468 (MDA-MB-468): 22%
- GI% SK-MEL-2 (SK-MEL-2): – (Only GI% ≥ 10 are shown)
- GI% K-562 (K-562): 25%
- GI% OVCAR-4 (OVCAR-4): – (Only GI% ≥ 10 are shown)
- GI% HS578T (HS578T): – (Only GI% ≥ 10 are shown)
- GI% MOLT-4 (MOLT-4): 17%
- GI% RXF 393 (RXF 393): – (Only GI% ≥ 10 are shown)
- GI% OVCAR-5 (OVCAR-5): – (Only GI% ≥ 10 are shown)
- zone of inhibition at 1000 µg/mL (Aspergillus flavus; Aspergillus flavus, 24 h, read-out: Diameter of inhibition zone, A. flavus): 13 mm
- % activity index, A. flavus (Aspergillus flavus; relative to clotrimazole): 52%
- GI% SN12C (SN12C): – (Only GI% ≥ 10 are shown)
- GI% OVCAR-8 (OVCAR-8): – (Only GI% ≥ 10 are shown)
- Mean GI% (NCI 60 cancer cell lines): 6%
- GI% BT-549 (BT-549): – (Only GI% ≥ 10 are shown)
- GI% SF-539 (SF-539): – (Only GI% ≥ 10 are shown)
- GI% NCI/ADR-RES (NCI/ADR-RES): – (Only GI% ≥ 10 are shown)
- GI% SF-268 (SF-268): – (Only GI% ≥ 10 are shown)
- GI% UO-31 (UO-31): – (Only GI% ≥ 10 are shown)
- GI% HCC-2998 (HCC-2998): – (Only GI% ≥ 10 are shown)
- GI% PC-3 (PC-3): 29%
- GI% NCI-H460 (NCI-H460): – (Only GI% ≥ 10 are shown)
- zone of inhibition at 1000 µg/mL (Staphylococcus aureus; Staphylococcus aureus, 24 h, read-out: Diameter of inhibition zone, S. aureus): 11 mm
- % activity index, S. aureus (Staphylococcus aureus; relative to ciprofloxacin): 45.8%
- GI% SNB-75 (SNB-75): 20%
- GI% SF-295 (SF-295): – (Only GI% ≥ 10 are shown)
- GI% COLO 205 (COLO 205): – (Only GI% ≥ 10 are shown)
- GI% M14 (M14): – (Only GI% ≥ 10 are shown)
- GI% EKVX (EKVX): – (Only GI% ≥ 10 are shown)
- zone of inhibition at 1000 µg/mL (Candida albicans; Candida albicans, 24 h, read-out: Diameter of inhibition zone, C. albicans): 10 mm
- % activity index, C. albicans (Candida albicans; relative to clotrimazole): 37%
- GI% ACHN (ACHN): – (Only GI% ≥ 10 are shown)
- GI% HCT-15 (HCT-15): 10%
- GI% IGROV1 (IGROV1): – (Only GI% ≥ 10 are shown)
- GI% A549/ATCC (A549/ATCC): 11%
- GI% LOX IMVI (LOX IMVI): – (Only GI% ≥ 10 are shown)
- GI% U251 (U251): – (Only GI% ≥ 10 are shown)
- GI% SNB-19 (SNB-19): – (Only GI% ≥ 10 are shown)
- GI% HCT-116 (HCT-116): 13%
- GI% HT29 (HT29): – (Only GI% ≥ 10 are shown)
- GI% NCI-H23 (NCI-H23): – (Only GI% ≥ 10 are shown)
- GI% MDA-MB-435 (MDA-MB-435): – (Only GI% ≥ 10 are shown)
- GI% CCRF-CEM (CCRF-CEM): – (Only GI% ≥ 10 are shown)
- GI% T-47D (T-47D): 30%
- GI% 786-0 (786-0): 16%
- GI% RPMI-8226 (RPMI-8226): 17%
- GI% SK-OV-3 (SK-OV-3): – (Only GI% ≥ 10 are shown)
- GI% CAKI-1 (CAKI-1): 19%
- GI% HL-60(TB) (HL-60(TB)): 29%

From PMC9481151, “Discovery of new symmetrical and asymmetrical nitrile-containing 1,4-dihydropyridine derivatives as dual kinases and P-glycoprotein inhibitors: synthesis, in vitro assays, and in silico studies” (Journal of Enzyme Inhibition and Medicinal Chemistry, 2022)
